From ChEMBL document CHEMBL5241112, “Insights into the recent progress in the medicinal chemistry of pyranopyrimidine analogs” (RSC Med Chem, 2022) come the findings set out here.

≈ marks a conversion by molar mass, not a printed value.

The test system of experiment [1] is Klebsiella pneumoniae. Briefly: Antibacterial activity against Klebsiella pneumoniae MGH 78578 assessed as diameter of inhibition zone at 50 mg/ml incubated for 24 hrs by paper disk diffusion method. To be noted: read-out: DIZ. The class given is functional.
For experiment [2], the system named is Escherichia coli. The experiment is described as follows: Antibacterial activity against Escherichia coli ATCC 25922 assessed as diameter of inhibition zone at 50 mg/ml incubated for 24 hrs by paper disk diffusion method. The class given is functional. Particulars: read-out: DIZ.
The test system of a further experiment is Aspergillus fumigatus. The experiment is described as follows: microbe, parasite or virus in culture. The class given is functional. To be noted: ATCC204305, dose 50 mg/ml, time 24 hrs, read-out: DIZ.
Experiment [3] is described as follows: Antioxidant activity assessed as NO radical scavenging activity. The experiment is classed as functional.
Experiment [4] is described as follows: Antioxidant activity assessed as H2O2 radical scavenging activity. The class given is functional.
A short description of experiment [5]: Antioxidant activity assessed as DPPH radical scavenging activity. The experiment is classed as functional. A general note: DPPH is a stable violet radical that fades when it is reduced.
A short description of experiment [6]: Antioxidant activity assessed as DPPH radical scavenging activity at 75 ug/ml incubated for 30 mins by spectrophotometric analysis. The class given is functional. To be noted: dose 75.0 µg/ml.
A short description of experiment [7]: Antioxidant activity assessed as DPPH radical scavenging activity at 12 ug incubated for 30 mins by spectrophotometric analysis. The class given is functional. Particulars: dose 12.0 µg.
The nature of experiment [8]: Antioxidant activity assessed as DPPH radical scavenging activity at 100 ug/ml incubated for 30 mins by spectrophotometric analysis. The experiment is classed as functional. Particulars: dose 100.0 µg/ml.
In experiment [9] the test system is Pseudomonas aeruginosa. Briefly: Antimicrobial activity against Pseudomonas aeruginosa ATCC 27853 assessed as diameter of inhibition zone at 20 mg/ml incubated for 24 hrs by disk diffusion method. The class given is functional. To be noted: read-out: DIZ. (In general: Agar diffusion results depend on both activity and mobility in agar.)
Experiment [10] relates to Escherichia coli. Briefly: Antimicrobial activity against Escherichia coli ATCC 25922 assessed as diameter of inhibition zone at 20 mg/ml incubated for 24 hrs by disk diffusion method. The class given is functional. To be noted: read-out: DIZ.
Experiment [11] concerns Klebsiella pneumoniae. The experiment is described as follows: Antimicrobial activity against Klebsiella pneumoniae ATCC 15380 assessed as diameter of inhibition zone at 20 mg/ml incubated for 24 hrs by disk diffusion method. Particulars: read-out: DIZ. The experiment is classed as functional.
The subject of the next experiment is Aspergillus ochraceus. The experiment is described as follows: Antifungal activity against Aspergillus ochraceus assessed as diameter of inhibition zone by disc diffusion method. The class given is functional.
The subject of another experiment is Serratia marcescens. Briefly: Antibacterial activity against Serratia marcescens assessed as diameter of inhibition zone by disc diffusion method. The class given is functional.
The next experiment concerns Penicillium chrysogenum. Briefly: Antifungal activity against Penicillium chrysogenum assessed as diameter of inhibition zone by disc diffusion method. The class given is functional.
In experiment [12] the test system is Salmonella typhimurium. Briefly: Antimicrobial activity against Salmonella typhimurium ATCC 19430 assessed as diameter of inhibition zone at 20 mg/ml incubated for 24 hrs by disk diffusion method. Particulars: Salmonella enterica, read-out: DIZ. The class given is functional, Salmonella enterica subsp. enterica serovar Typhimurium.
Experiment [13] deals with Escherichia coli. Briefly: Antibacterial activity against Escherichia coli assessed as diameter of inhibition zone at 100 ug/ml by disc diffusion method. The experiment is classed as functional. To be noted: read-out: DIZ.
Another experiment concerns Bacillus subtilis. Briefly: Antibacterial activity against Bacillus subtilis assessed as diameter of inhibition zone at 100 ug/ml by disc diffusion method. The experiment is classed as functional. To be noted: read-out: DIZ.
For experiment [14], the system named is Klebsiella pneumoniae. The experiment is described as follows: Antibacterial activity against Klebsiella pneumoniae assessed as diameter of inhibition zone at 100 ug/ml by disc diffusion method. The experiment is classed as functional. To be noted: read-out: DIZ.
For experiment [15], the system named is Staphylococcus aureus. Briefly: Antibacterial activity against Staphylococcus aureus assessed as diameter of inhibition zone at 100 ug/ml by disc diffusion method. The class given is functional. To be noted: read-out: DIZ.
The subject of a further experiment is Candida albicans. Briefly: Antifungal activity against Candida albicans assessed as diameter of inhibition zone at 100 ug/ml by agar disc diffusion method. The experiment is classed as functional. To be noted: read-out: DIZ.
The subject of experiment [16] is Salmonella typhimurium. The experiment is described as follows: Antibacterial activity against Salmonella typhimurium MTCC 98 assessed as bacterial growth inhibition by broth microdilution method. The class given is functional, Salmonella enterica subsp. enterica serovar Typhimurium. To be noted: Salmonella enterica.
For experiment [17], the system named is Klebsiella pneumoniae. The experiment is described as follows: Antibacterial activity against Klebsiella pneumoniae assessed as bacterial growth inhibition by broth microdilution method. The experiment is classed as functional.
The test system of experiment [18] is Escherichia coli. The experiment is described as follows: Antibacterial activity against Escherichia coli assessed as bacterial growth inhibition by broth microdilution method. The class given is functional. In general terms: Dilution methods test growth across graded concentrations, often in twofold steps.
Experiment [19] relates to Pseudomonas aeruginosa. The experiment is described as follows: Antibacterial activity against Pseudomonas aeruginosa assessed as bacterial growth inhibition by broth microdilution method. The class given is functional.
Experiment [20] deals with Mycobacterium tuberculosis. The experiment is described as follows: Antitubercular activity against Mycobacterium tuberculosis H37Rv assessed as bacterial growth inhibition incubated for 24 hrs by MABA assay. The class given is functional.
The subject of experiment [21] is Staphylococcus aureus. The experiment is described as follows: Antibacterial activity against Staphylococcus aureus assessed as inhibition of bacterial growth. The experiment is classed as functional.
In experiment [22] the test system is Staphylococcus aureus. The experiment is described as follows: Antibacterial activity against Staphylococcus aureus assessed as bacterial growth inhibition by broth microdilution method. The class given is functional.

For the molecule `Nc1ncnc2c1C(c1ccc(Cl)cc1)C=C(c1cc3ccccc3oc1=O)O2` (configuration not stated), the zone of inhibition at 50000 µg/mL in the experiment on Klebsiella pneumoniae [1] was 14 mm; in the experiment on Escherichia coli [2] it was 10 mm; in the experiment with Aspergillus fumigatus, 10 mm.
A word on the IC50: it is the concentration that inhibits the measured activity by half. Turning to `Nc1ncnc2c1C(c1ccccc1O)c1ccc(O)cc1O2` (configuration not stated), the concentration for half-maximal inhibition (IC50) in [3] amounted to 50.32 µg/mL (≈ 164 µM); in experiment [4], 53.54 µg/mL (≈ 174 µM); in experiment [5] it was 36.82 µg/mL (≈ 120 µM).
In the case of `O=C1O[C@H]([C@@H](O)CO)C(O)=C1O`, the values for the Activity in [6], in [7] and in experiment [8] were 89.4%, 94.6% and 97.6%, respectively.
In the case of `Cc1ccc(C2C(C#N)=C(N)Oc3[nH]c(=O)[nH]c(=O)c32)s1` (configuration not stated), the zone of inhibition at 20000 µg/mL with Pseudomonas aeruginosa [9] amounted to 18 mm; with Escherichia coli [10], 14 mm; with Klebsiella pneumoniae [11] it was 16 mm.
For `N=c1c2c(ncn1N)Oc1[nH]nc(-c3ccccc3)c1C2c1coc2ccccc2c1=O` (configuration not stated), in experiment [6], the Activity amounted to 85.5%.
As to `Cc1nc2c3c(ncn2n1)Oc1ccc2cc(Br)ccc2c1C3`, the “diameter of the inhibition zone (DIZ)” value in the experiment with Aspergillus ochraceus is 17 mm; in the experiment on Serratia marcescens, 23 mm; with Penicillium chrysogenum it was 13 mm.
With `N#CC1=C(N)Oc2[nH]c(=O)[nH]c(=O)c2C1c1ccc[nH]1` (configuration not stated), the figures for the zone of inhibition at 20000 µg/mL in the experiment on Salmonella typhimurium [12] and in the experiment on Klebsiella pneumoniae [11] were 20 mm and 16 mm, respectively.
Regarding `CCOC(=O)C1=C(C)Oc2nc(C)n(Cc3cn(-c4cccc(C(F)(F)F)c4)nn3)c(=O)c2C1c1ccc([N+](=O)[O-])cc1` (configuration not stated), the zone of inhibition at 100 µg/mL in the experiment on Escherichia coli [13] turned out to be 14 mm; with Bacillus subtilis, 12 mm; with Klebsiella pneumoniae [14], 15.5 mm.
Turning to `Cc1cc(C(C)(C)C)c(O)c(C(C)(C)C)c1` [BUTYLATED HYDROXYTOLUENE], the concentration for half-maximal inhibition (IC50) in experiment [3] was determined as 56.9 µg/mL (≈ 258 µM); in experiment [4] it was 65.33 µg/mL (≈ 296 µM); in experiment [5] it was 37.52 µg/mL (≈ 170 µM).
In the case of `CCOC(=O)C1=C(C)Oc2nc(C)n(Cc3cn(-c4cccc([N+](=O)[O-])c4)nn3)c(=O)c2C1c1ccc([N+](=O)[O-])cc1` (configuration not stated), the zone of inhibition at 100 µg/mL in the experiment with Escherichia coli [13] came to 15 mm; in the experiment on Staphylococcus aureus [15], 16 mm; with Candida albicans, 16.5 mm.
Turning to `Nc1ncnc2c1C(c1ccc([N+](=O)[O-])cc1)c1ccc(O)cc1O2` (configuration not stated), the results for the IC50 in experiment [3], in experiment [4] and in [5] were 50.32 µg/mL (≈ 150 µM), 53.54 µg/mL (≈ 159 µM) and 34.34 µg/mL (≈ 102 µM), respectively.
`O=c1c(C2c3c(O)ncnc3Oc3[nH]nc(-c4ccccc4)c32)coc2ccccc12` (configuration not stated): the Activity in experiment [8] is 87.5%.
In general, MIC refers to the lowest concentration that inhibits growth of the organism. On to `O=C(O)c1cn(C2CC2)c2cc(N3CCNCC3)c(F)cc2c1=O` [CIPROFLOXACIN], for which the MIC in the experiment on Salmonella typhimurium [16] is 25 µg/mL (≈ 75.4 µM); in the experiment with Klebsiella pneumoniae [17], 3.12 µg/mL (≈ 9.42 µM); in the experiment with Escherichia coli [18] it was 3.12 µg/mL (≈ 9.42 µM); in the experiment with Pseudomonas aeruginosa [19] it was 3.12 µg/mL (≈ 9.42 µM); in experiment [20], 3.12 µg/mL (≈ 9.43 µM); in the experiment with Staphylococcus aureus [21], 50 µg/mL (≈ 151 µM). Further, the MIC with Staphylococcus aureus [22] came to 3.12 µg/mL (≈ 9.42 µM).
Regarding `CCOC(=O)C1=C(C)Oc2nc(C)n(Cc3cn(-c4ccc([N+](=O)[O-])cc4)nn3)c(=O)c2C1c1ccc([N+](=O)[O-])cc1` (configuration not stated), the zone of inhibition at 100 µg/mL came out at 14.5 mm in the experiment with Escherichia coli [13], 12.5 mm in the experiment on Bacillus subtilis, 14 mm in the experiment on Staphylococcus aureus [15] and 14 mm in the experiment on Klebsiella pneumoniae [14].
